Test results from patent publication US6423518B1, “Design and production of mutant 2,5-diketo-D-gluconic acid reductase enzymes with altered cofactor dependency” (Rutgers, the State University, priority 2000, dated 2002).

Legend:
Assay in all cases: Kinetic determination with purified enzyme, NADH cofactor, initial rates (microtiter plate)
Type in all cases: biochemical
[1] = molecular target: T1, 2,5-diketo-D-gluconic acid reductase A (Corynebacterium sp., wild type SEQ ID NO:1) variant R238H (Corynebacterium sp., UniProt P06632, R238H); conditions: versus wild type; NADH as varied substrate
T1 construct: GroES fragment (N); made in house; host or cells: E. coli JM109
Protocol: (§1) The activities of the purified enzymes were assayed in 96-well microtiter plates on a plate reader.
(§2) Equation (1) is: [formula]
(§3) B=2,5-diketo-D-gluconic acid concentration;
(§4) Kb=Michaelis Constant for 2,5-diketo-D-gluconic acid;
(§5) Kia=Dissociation Constant for NADH;
(§6) Et=Total enzyme concentration.
(§7) However, the parameters could not be fit in this model with any accuracy, due to the large apparent value of KM for 2,5-diketo-D-gluconic acid, and the low concentration of 2,5-diketo-D-gluconic acid that was used. The 2,5-diketo-D-gluconic acid concentrations were not large enough to saturate the enzyme, so a further mathematical simplification was required. Preliminary fitting of the model indicated both kcat and Kb to be very large in comparison to Ka and Kia Therefore, the rate equation was simplified to the following equation (2): [formula]
(§8) This equation is only valid when B<<Kb.
(§9) This equation was then used to fit the kinetic data, with much better results.
(§10) Other comparisons can also be made between the different mutants using these parameters. […]
(§11) Cells containing plasmids for some of the mutant reductases were grown up on a 1 liter scale using a 10 ml inoculum from a saturated overnight culture. The cells were grown until absorbance of the culture at 600 nm was approximately 1.0. The cells were then induced by adding IPTG to a final concentration of 1 mM. The cells were harvested after growth at 37° C. for 4 hours. The cells were then pelleted by centrifugation and frozen for later use. At a later date, cells were thawed and lysed with the Bug Buster detergent (Novagen) containing Complete Protease Inhibitor Cocktail Tablets (Roche). The pH was lowered to 5.5 with 20 mM sodium acetate (NaOAc) and NaCl was added to a final concentration of 0.15 M. After 10 minutes with the detergent, the cell debris was removed by centrifugation, and the supernatant was loaded onto disposable chromatography columns containing a 10 ml bed volume of DEAE Cellulose (Sigma) for a batch weak ion exchange step. The resin was washed with 0.15 M NaCl, still in the presence of NaOAc, pH 5.5. The bound proteins were then eluted by two washes with 0.5 M NaCl. The eluted material was then diluted back to 0.15 M NaCl by the addition of more 20 mM NaOAc buffer. This was then loaded onto a 4.6 mmD/100mml PEEK column (PerSeptive Biosystems) containing 50 μm DEAE Ceramic HyperD F resin (BioSepra) using an FPLC system. The high performance resin was washed with 0.1 M NaCl and the bound proteins were eluted using a linear salt gradient up to 0.4 M NaCl. Active fractions were pooled and the pH was raised to 7.0 using 50 mM bis-Tris. The pooled fractions were then concentrated by ultrafiltration in a stirred cell unit using a polyethersulfone membrane with a 10,000 MW cut-off (Millipore). The concentrate was loaded onto a Superdex-75 gel filtration column (Pharmacia) using 50 mM bis-Tris pH 7.0 with an FPLC system. The active fractions were again pooled. A small sample from the pooled fractions was electrophoresed on a polyacrylamide gel in the presence of SDS in order to insure homogeneity of the final product.
(§12) NADPH and NADH were prepared fresh for each use in kinetic measurements. These reactions were performed in 96-well microtiter plates using a SpectraMax 190 plate reader (Molecular Devices). Varying amounts of cofactor and substrate were added to the wells and reaction was initiated by the addition of the mutant enzyme. The final volume of each reaction was 200 μl, the reactions were buffered with 50 mM bis-Tris pH 7.0, and the temperature was held at 25° C. […] Initial rate data was collected in each well, and a standard curve was generated each day in order to correlate the change in absorbance of the reaction to a change in concentration of cofactors. All measurements were performed in triplicate (at least) and the runs were averaged for use in kinetic modeling.

[2] = molecular target: T2, 2,5-diketo-D-gluconic acid reductase A (Corynebacterium sp., wild type SEQ ID NO:1) variant K232G (Corynebacterium sp., UniProt P06632, K232G)
T2 construct: GroES fragment (N); made in house; host or cells: E. coli JM109
Protocol: as §1, §2, §3, §4, §5, §6, §7, §8, §9, §10, §11, §12

[3] = molecular target: T3, 2,5-diketo-D-gluconic acid reductase A (Corynebacterium sp., wild type SEQ ID NO:1) variant R238E (Corynebacterium sp., UniProt P06632, R238E)
T3 construct: GroES fragment (N); made in house; host or cells: E. coli JM109
Protocol: as §1, §2, §3, §4, §5, §6, §7, §8, §9, §10, §11, §12

[4] = molecular target: T4, 2,5-diketo-D-gluconic acid reductase A, wild type, Corynebacterium sp. (ATCC Strain No. 31090; Genbank Accession No. 4699594; SEQ ID NO:1) (Corynebacterium sp., UniProt P06632)
T4 construct: GroES fragment (N); made in house; host or cells: E. coli JM109
Protocol: as §1, §2, §3, §4, §5, §6, §7, §8, §9, §10, §11, §12

[5] = molecular target: T5, 2,5-diketo-D-gluconic acid reductase A (Corynebacterium sp., wild type SEQ ID NO:1) variant R235T (Corynebacterium sp., UniProt P06632, R235T)
T5 construct: GroES fragment (N); made in house; host or cells: E. coli JM109
Protocol: as §1, §2, §3, §4, §5, §6, §7, §8, §9, §10, §11, §12

[6] = kcat/Ka apparent with NADH, relative to wild type
[7] = versus wild type, NADH as varied substrate

T4 sequence (P06632 whole entry, the tested form may be a part): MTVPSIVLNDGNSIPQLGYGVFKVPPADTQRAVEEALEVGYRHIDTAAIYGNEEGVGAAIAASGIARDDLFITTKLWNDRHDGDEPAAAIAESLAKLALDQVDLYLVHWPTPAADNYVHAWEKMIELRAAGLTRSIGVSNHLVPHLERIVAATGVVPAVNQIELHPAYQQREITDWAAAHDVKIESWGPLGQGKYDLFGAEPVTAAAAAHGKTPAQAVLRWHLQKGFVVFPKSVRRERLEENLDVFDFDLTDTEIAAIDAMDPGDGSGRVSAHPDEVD
T5 sequence (P06632 whole entry R235T, the tested form may be a part): as the sequence (P06632 whole entry, the tested form may be a part) above, with R235T counted along it
T3 sequence (P06632 whole entry R238E, the tested form may be a part): as the sequence (P06632 whole entry, the tested form may be a part) above, with R238E counted along it
T2 sequence (P06632 whole entry K232G, the tested form may be a part): as the sequence (P06632 whole entry, the tested form may be a part) above, with K232G counted along it
T1 sequence (P06632 whole entry R238H, the tested form may be a part): as the sequence (P06632 whole entry, the tested form may be a part) above, with R238H counted along it

Q: `NC(=O)C1=CN([C@@H]2O[C@H](COP(=O)(O)OP(=O)(O)OC[C@H]3O[C@@H](n4cnc5c(N)ncnc54)[C@H](O)[C@@H]3O)[C@@H](O)[C@H]2O)C=CC1` [NADH] was tested. Which “improvement in apparent kcat” value [1] did it give?
A: more than 5 fold

Q: What about the Kd [2] of the same compound?
A: 2.02 ± 0.12 mM

Q: What about the “(kcat/KbKia)/(kcat/KbKia)wt” value [2, 6] of the same compound?
A: 1.55

Q: And the “Kia/(Kia)wt” value ([2]; relative to wild type, NADH)?
A: 0.78

Q: What about the Kd [3] of the same compound?
A: 8.45 ± 1.74 mM

Q: What about the “(kcat/KbKia)/(kcat/KbKia)wt” value [3, 6] of the same compound?
A: 0.63

Q: What about the “Kia/(Kia)wt” value ([3]; relative to wild type, NADH) of the same compound?
A: 3.25

Q: And the “change of apparent kcat” value [3, 7]?
A: doubled

Q: And the “increase of apparent Ka” value [3, 7]?
A: more than 3 fold

Q: What about the “(kcat/KbKia)/(kcat/KbKia)wt” value [4, 6] of the same compound?
A: 1.00

Q: And the Kd ([4]; read-out: Kia)?
A: 2.6 ± 0.16 mM

Q: What about the “Kia/(Kia)wt” value ([4]; relative to wild type, NADH) of the same compound?
A: 1.00

Q: What about the Kd [5] of the same compound?
A: 8.84 ± 2.28 mM

Q: And the “(kcat/KbKia)/(kcat/KbKia)wt” value [5, 6]?
A: 0.54

Q: And the “Kia/(Kia)wt” value ([5]; relative to wild type, NADH)?
A: 3.40

Q: What about the “increase of apparent Ka” value [5, 7] of the same compound?
A: more than 3 fold

Q: And the “increase of apparent kcat” value [5, 7]?
A: 2 fold
